{
  "source": "patent US10151753B2",
  "about": "“Microfluidic devices for isolating particles” (The General Hospital Corporation, priority 2013, dated 2018)",
  "key": {"Jurkat cells": {"test_system": "Jurkat cells", "assay": "Ibrutinib-BFL fluorescence imaging of captured cells on the microfluidic device", "format": "cell-based", "conditions": "FIG. 24"}, "Rec-1 cells": {"test_system": "Rec-1 cells", "assay": "Ibrutinib-BFL fluorescence imaging of captured cells on the microfluidic device", "format": "cell-based", "conditions": "Rec-1 mantle cell lymphoma cells, FIG. 24"}},
  "data": [
    {"smiles": "Cc1cc(C)n2c1C=C1C=CC(CCC(=O)NCC=CC(=O)N3CCCC(n4nc(-c5ccc(Oc6ccccc6)cc5)c5c(N)ncnc54)C3)=[N+]1[B-]2(F)F", "note": "(centres unmarked) [Ibrutinib-BFL]", "values": [
      {"measurement": "fluorescence of cells when incubated with the imaging drug (binding)", "setting": "Jurkat cells", "result": "do not exhibit fluorescent"},
      {"measurement": "fluorescence of cells when incubated with the imaging drug (binding)", "setting": "Rec-1 cells", "result": "exhibit fluorescence"}
    ]}
  ]
}
